This is an account of results in patent publication US20150004704A1, “COMPOSITIONS AND METHODS FOR INCREASING OIL CONTENT IN ALGAE” (A.B. Seeds Ltd., priority 2009, published 2015).

What all share (assay type): cell-based
For one test, the system named is Haematococcus pluvialis. In words: Oil content by Nile Red staining with hormone supplements (Example 3). The conditions noted are these: 1 week, ratio to average of two controls, triplicate. The method, then:
(§1) TX, and were grown at 22° C. under constant white light at an intensity of 175 micromole photon m^−2 s−1. Chlamydomonas reinhardtii (UTEX strain 90), Chlorella vulgaris (UTEX 2714) and Haematococcus pluvialis (UTEX strain 2505) were grown in TAP medium {Harris E H: The Chlamydomonas sourcebook: A comprehensive guide to biology and laboratory use. New-York: Academic Press; 1989}. Phaeodactylum tricornutum (UTEX strain 642) was grown in a modified LDM medium {Lewin, R. A., 1959. The isolation of algae. Rev. algol. no. 3: 182-197}.
(§2) Algal cells of Chlamydomonas reinhardtii, Phaeodactylum tricornutum and Haematococcus pluvialis, were each grown to a concentration of 10^5 cells/ml and divided into 7×250-ml flasks, each containing 50 ml medium with the following supplements (all values are final hormone concentrations):
(§3) IAA: 1.0 mg/liter, NAA: 1.0 mg/liter, 2,4-D: 1.0 mg/liter, 6-BAP: 0.1 mg/liter, and Kinetin: 0.1 mg/liter.
(§4) Oil content was measured in triplicate 1 week after addition of the hormones to the medium, using Nile Red staining: 200 μl of algal cells were placed in a 96-well plate (Costar 3596), mixed with 10 μl of Nile Red solution (N3013, Sigma. 1 mg/ml stock in acetone) and incubated for 10 minutes at room-temperature. Fluorescence was measured using a Thermo Electron Fluroskan Ascent with excitation at 485 nm and emission at 590 nm 200 μl of fresh growth media with 10 μl of Nile Red were used for blank measurements. Fluorescence was normalized against cell density as measured by an EL×808 microplate reader (BIOTEK Instruments Inc) at 630 nm and verified by cell count of selected samples. For each treatment the normalized oil content was defined as the oil content divided by the cell density. The average of the normalized oil content of the triplicates for each treatment was calculated. The effect of each treatment was determined by the ratio between the average of the normalized oil content and the average of the two control experiments.

In test [1] the test system is Phaeodactylum tricornutum. Described as above. The settings on record: 1 week, ratio to average of two controls, triplicate. The method, then:
as §1, §2, §3, §4

The subject of test [2] is Chlamydomonas reinhardtii. The description is as above. The conditions noted are these: 1 week, ratio to average of two controls, triplicate. The method, then: as §1, §2, §3, §4
Test [3] concerns Chlamydomonas reinhardtii. In words: Oil content by Nile Red staining, C. reinhardtii with hormone supplements (Example 2). The conditions noted are these: for Oil content: Nile Red fluorescence; for Oil content / Normalized oil content: duplicates; for Average normalized oil content: average of duplicates; for Normalized oil content: oil content divided by cell density; for Effect: ratio of average normalized oil content to average of two controls. The arrangement: Oil content: unit not given here. On the procedure:
as §1
(§5) Algae were grown to a concentration of 10^5 cells/ml and divided into 10×250-ml flasks, each containing 50 ml TAP medium with the following hormone supplements (all values are final hormone concentrations):
(§6) IAA: 0.5 mg/liter and 1 mg/liter, NAA: 0.5 mg/liter and 1 mg/liter, 6-BAP: 0.05 mg/liter and 0.1 mg/liter, and Kinetin: 0.05 mg/liter and 0.1 mg/liter. No supplement was added to Controls 1 and 2.
(§7) Oil content was measured, in duplicate, one week after addition of the hormones to the medium, using Nile Red staining. 200 μl of Chlamydomonas reinhardtii cells were placed in a 96-well plate (Costar 3596), mixed with 10 μl of Nile Red solution (N3013, Sigma. 1 mg/ml stock in acetone) and incubated for 15 minutes at room-temperature. Fluorescence was measured using a Thermo Electron Fluroskan Ascent with excitation at 544 nm and emission at 590 nm 200 μl of fresh growth media with 10 μl of Nile Red were used for blank measurements. Fluorescence was normalized against cell density as measured by an EL×808 microplate reader (BIOTEK Instruments Inc) at 450 nm and verified by cell count of selected samples.
(§8) The growth rate in each flask was estimated by measuring the OD (optical density, at 450 nm), which represents cell density. For each treatment the normalized oil content was defined as the oil content divided by the cell density. The average of the normalized oil content of the duplicates for each treatment was calculated. The effect of each treatment was determined by the ratio between the average of the normalized oil content and the average of the two control experiments.

Test [4] relates to Chlamydomonas reinhardtii. In words: Cell density (OD 450 nm), C. reinhardtii with hormone supplements (Example 2). The settings on record: 1 week after addition, duplicates. On the procedure:
as §5, §6, §7, §8

The structures appear in SMILES notation. “And” between values parts separate entries of the source, which are not always exact repeats. Equal entries are not always repeated.

For the molecule `O=C(O)COc1ccc(Cl)cc1Cl` [2,4-D, 2,4-dichlorophenoxy acetic acid], the results for the “Effect of addition of hormones to growth medium on oil content” value (“Effect of addition of hormones” below) (in the test on Haematococcus pluvialis (supplement 1 mg/l); in test [1] (supplement 1 mg/l); in test [2] (supplement 1 mg/l)) were 1.69 ± 0.51, 1.09 ± 0.04 and 1.21 ± 0.03, respectively.
In the case of `c1ccc(CNc2ncnc3nc[nH]c23)cc1` [6-BAP, 6-Benzylaminopurine], the Oil content was 2.709 and 2.587 in test [3] (supplement 0.05 mg/l, 1 week); 3.04 and 2.891 in test [3] (supplement 0.1 mg/l, 1 week). Further, the “Average normalized oil content” value in test [3] (supplement 0.05 mg/l) was 9.41; in test [3] (supplement 0.1 mg/l), 10.65. Besides, the Normalized oil content in test [3] (supplement 0.05 mg/l) is 9.28 and 9.55; in test [3] (supplement 0.1 mg/l), 10.74 and 10.55. The Effect in test [3] (supplement 0.05 mg/l) turned out to be 1.29 ± 0.02; in test [3] (supplement 0.1 mg/l), 1.46 ± 0.02. Moreover, the Cell density in test [4] (supplement 0.05 mg/l) is 0.29 and 0.27; in test [4] (supplement 0.1 mg/l) it was 0.28 and 0.27. The “Effect of addition of hormones” value worked out at 1.28 ± 0.20 with Haematococcus pluvialis (supplement 0.1 mg/l), 1.32 ± 0.20 in test [1] (supplement 0.1 mg/l) and 1.22 ± 0.13 in test [2] (supplement 0.1 mg/l).
Regarding `O=C(O)Cc1c[nH]c2ccccc12` [IAA, Indole-3-acetic acid], the Oil content is 2.747 and 2.748 in test [3] (supplement 0.5 mg/l, 1 week); 3.283 and 3.635 in test [3] (supplement 1.0 mg/l, 1 week). Besides, the “Average normalized oil content” value in test [3] (supplement 0.5 mg/l) was 10.17; in test [3] (supplement 1.0 mg/l), 10.92. Also, the Normalized oil content in test [3] (supplement 0.5 mg/l) is 9.57 and 10.78; in test [3] (supplement 1.0 mg/l), 9.89 and 11.96. For the same molecule, the Effect is listed as 1.39 ± 0.11 in test [3] (supplement 0.5 mg/l) and 1.49 ± 0.20 in test [3] (supplement 1.0 mg/l). Besides, the Cell density is 0.29 and 0.26 in test [4] (supplement 0.5 mg/l); 0.33 and 0.30 in test [4] (supplement 1.0 mg/l). Besides, the “Effect of addition of hormones” value in the test on Haematococcus pluvialis (supplement 1 mg/l) amounted to 0.96 ± 0.15; in test [1] (supplement 1 mg/l), 0.97 ± 0.04; in test [2] (supplement 1 mg/l), 1.05 ± 0.11.
As for `c1coc(CNc2ncnc3[nH]cnc23)c1` [Kinetin], the “increase compared to controls (oil content)” value in test [3] (0.1 mg/liter, 1 week, maximum effect) is on record as 67%. Besides, the Oil content is 3.023 and 3.071 in test [3] (supplement 0.05 mg/l, 1 week); 3.503 and 3.38 in test [3] (supplement 0.1 mg/l, 1 week). Further, the “Average normalized oil content” value in test [3] (supplement 0.05 mg/l) stood at 10.47; in test [3] (supplement 0.1 mg/l), 12.24. The Normalized oil content was 9.85 and 11.09 in test [3] (supplement 0.05 mg/l); 11.91 and 12.57 in test [3] (supplement 0.1 mg/l). The Effect in test [3] (supplement 0.05 mg/l) is listed as 1.43 ± 0.12; in test [3] (supplement 0.1 mg/l), 1.67 ± 0.06. In addition, the Cell density in test [4] (supplement 0.05 mg/l) was 0.31 and 0.28; in test [4] (supplement 0.1 mg/l) it was 0.29 and 0.27. The “Effect of addition of hormones” value is 1.09 ± 0.03 in the test with Haematococcus pluvialis (supplement 0.1 mg/l), 1.19 ± 0.02 in test [1] (supplement 0.1 mg/l) and 1.23 ± 0.03 in test [2] (supplement 0.1 mg/l).
For `O=C(O)Cc1cccc2ccccc12` [NAA, α-Naphthaleneacetic acid], the Oil content in test [3] (supplement 0.5 mg/l, 1 week) was 2.677 and 2.59; in test [3] (supplement 1.0 mg/l, 1 week), 3.059 and 3.232. The “Average normalized oil content” value in test [3] (supplement 0.5 mg/l) is 8.67; in test [3] (supplement 1.0 mg/l), 10.36. The Normalized oil content is 8.44 and 8.90 in test [3] (supplement 0.5 mg/l); 9.84 and 10.88 in test [3] (supplement 1.0 mg/l). Also, the values for the Effect in test [3] (supplement 0.5 mg/l) and in test [3] (supplement 1.0 mg/l) were 1.19 ± 0.04 and 1.42 ± 0.10, respectively. Besides, the Cell density in test [4] (supplement 0.5 mg/l) was 0.32 and 0.29; in test [4] (supplement 1.0 mg/l) it was 0.31 and 0.30. For the same molecule, the “Effect of addition of hormones” value came out at 1.49 ± 0.35 in the test with Haematococcus pluvialis (supplement 1 mg/l), 0.90 ± 0.07 in test [1] (supplement 1 mg/l) and 0.99 ± 0.01 in test [2] (supplement 1 mg/l).
